Measurements from ChEMBL document CHEMBL1201862, “PubChem BioAssay data set” (2004).
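1) Cells in 96-well plates. 2) Compound, 48 h, 5 concentrations. 3) Linear interpolation between surrounding doses. 4) Unreached endpoint = highest concentration. GI50: concentration for 50% inhibition of growth.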 Active and inactive are the calls of the source. Rule as the data show it: active = GI50 up to about 1.1 µM and inactive = higher.

Key:
Assay in all cases: DTP human tumour cell line panel, 48 h
786-0 = test system: 786-0
A498 = test system: A498
A549 = test system: A549
ACHN = test system: ACHN
BT-549 = test system: BT-549
CAKI-1 = test system: CAKI-1
CCRF-CEM = test system: CCRF-CEM
COLO 205 = test system: COLO 205
DU-145 = test system: DU-145
EKVX = test system: EKVX
HCC 2998 = test system: HCC 2998
HCT-116 = test system: HCT-116
HCT-15 = test system: HCT-15
HL-60 = test system: HL-60
HOP-62 = test system: HOP-62
HT-29 = test system: HT-29
Hs-578T = test system: Hs-578T
IGROV-1 = test system: IGROV-1
K562 = test system: K562
KM12 = test system: KM12
LOX IMVI = test system: LOX IMVI
M14 = test system: M14
MCF7 = test system: MCF7
MDA-MB-231 = test system: MDA-MB-231
MDA-MB-435 = test system: MDA-MB-435
Malme-3M = test system: Malme-3M
NCI-H226 = test system: NCI-H226
NCI-H23 = test system: NCI-H23
NCI-H460 = test system: NCI-H460
NCI-H522 = test system: NCI-H522
NCI/ADR-RES = test system: NCI/ADR-RES
OVCAR-3 = test system: OVCAR-3
OVCAR-4 = test system: OVCAR-4
OVCAR-5 = test system: OVCAR-5
OVCAR-8 = test system: OVCAR-8
PC-3 = test system: PC-3
RPMI-8226 = test system: RPMI-8226
RXF 393 = test system: RXF 393
SF-268 = test system: SF-268
SF-295 = test system: SF-295
SF-539 = test system: SF-539
SK-MEL-28 = test system: SK-MEL-28
SK-MEL-2 = test system: SK-MEL-2
SK-MEL-5 = test system: SK-MEL-5
SK-OV-3 = test system: SK-OV-3
SN12C = test system: SN12C
SNB-19 = test system: SNB-19
SNB-75 = test system: SNB-75
SR = test system: SR
SW-620 = test system: SW-620
T47D = test system: T47D
TK-10 = test system: TK-10
U-251 = test system: U-251
UACC-257 = test system: UACC-257
UACC-62 = test system: UACC-62
UO-31 = test system: UO-31
HOP-92 = test system: HOP-92
MOLT-4 = test system: MOLT-4

COC(=O)C1=C(OC(=O)/C(=C/c2ccccc2)c2ccccc2)C(C(=O)OC)[C@@]2(O)[C@@H](C(=O)OC)[C@H](C)C[C@@H]1[C@@H]2C(=O)OC (stereo partly drawn)
GI50 (786-0): > 100 µM (inactive)
GI50 (A498): > 100 µM (inactive)
GI50 (A549): > 100 µM (inactive)
GI50 (ACHN): > 100 µM (inactive)
GI50 (BT-549): > 100 µM (inactive)
GI50 (CAKI-1): > 100 µM (inactive)
GI50 (CCRF-CEM): > 100 µM (inactive)
GI50 (COLO 205): > 100 µM (inactive)
GI50 (DU-145): > 100 µM (inactive)
GI50 (EKVX): > 100 µM (inactive)
GI50 (HCC 2998): > 100 µM (inactive)
GI50 (HCT-116): > 100 µM (inactive)
GI50 (HCT-15): > 100 µM
GI50 (HL-60): > 100 µM (inactive)
GI50 (HOP-62): > 100 µM (inactive)
GI50 (HT-29): > 100 µM (inactive)
GI50 (Hs-578T): > 100 µM (inactive)
GI50 (IGROV-1): > 100 µM (inactive)
GI50 (K562): 6.11 µM (inactive)
GI50 (KM12): > 100 µM (inactive)
GI50 (LOX IMVI): > 100 µM (inactive)
GI50 (M14): > 100 µM (inactive)
GI50 (MCF7): > 100 µM (inactive)
GI50 (MDA-MB-231): > 100 µM (inactive)
GI50 (MDA-MB-435): > 100 µM (inactive)
GI50 (Malme-3M): > 100 µM (inactive)
GI50 (NCI-H226): > 100 µM (inactive)
GI50 (NCI-H23): > 100 µM (inactive)
GI50 (NCI-H460): > 100 µM (inactive)
GI50 (NCI-H522): 45.4 µM (inactive)
GI50 (NCI/ADR-RES): > 100 µM (inactive)
GI50 (OVCAR-3): > 100 µM (inactive)
GI50 (OVCAR-4): > 100 µM (inactive)
GI50 (OVCAR-5): > 100 µM (inactive)
GI50 (OVCAR-8): > 100 µM (inactive)
GI50 (PC-3): > 100 µM (inactive)
GI50 (RPMI-8226): 2.67 µM (inactive)
GI50 (RXF 393): 66.2 µM (inactive)
GI50 (SF-268): > 100 µM (inactive)
GI50 (SF-295): 69.7 µM (inactive)
GI50 (SF-539): > 100 µM (inactive)
GI50 (SK-MEL-28): > 100 µM (inactive)
GI50 (SK-MEL-2): > 100 µM (inactive)
GI50 (SK-MEL-5): > 100 µM (inactive)
GI50 (SK-OV-3): > 100 µM (inactive)
GI50 (SN12C): > 100 µM (inactive)
GI50 (SNB-19): > 100 µM (inactive)
GI50 (SNB-75): > 100 µM (inactive)
GI50 (SR): > 100 µM (inactive)
GI50 (SW-620): > 100 µM (inactive)
GI50 (T47D): > 100 µM (inactive)
GI50 (TK-10): > 100 µM (inactive)
GI50 (U-251): > 100 µM (inactive)
GI50 (UACC-257): > 100 µM (inactive)
GI50 (UACC-62): > 100 µM (inactive)
GI50 (UO-31): > 100 µM (inactive)

COC(=O)[C@@H]1C[C@@]2(C3C=CN(C(=O)C(F)(F)F)C=C3)c3ccccc3N(C(=O)C(F)(F)F)[C@H]2N1C(=O)OC
GI50 (786-0): 54 µM (inactive)
GI50 (A498): > 100 µM (inactive)
GI50 (A549): > 100 µM (inactive)
GI50 (ACHN): > 100 µM (inactive)
GI50 (BT-549): 33.3 µM (inactive)
GI50 (CAKI-1): 65.3 µM (inactive)
GI50 (CCRF-CEM): 31.7 µM (inactive)
GI50 (COLO 205): > 100 µM (inactive)
GI50 (DU-145): > 100 µM (inactive)
GI50 (EKVX): > 100 µM (inactive)
GI50 (HCC 2998): 57.8 µM (inactive)
GI50 (HCT-116): > 100 µM (inactive)
GI50 (HCT-15): 88.1 µM
GI50 (HL-60): 30.9 µM (inactive)
GI50 (HOP-62): 49.5 µM (inactive)
GI50 (HOP-92): 34.1 µM (inactive)
GI50 (HT-29): > 10 µM (inactive)
GI50 (Hs-578T): 49.7 µM (inactive)
GI50 (IGROV-1): > 100 µM (inactive)
GI50 (K562): 47.8 µM (inactive)
GI50 (KM12): > 100 µM (inactive)
GI50 (LOX IMVI): 44.5 µM (inactive)
GI50 (M14): > 100 µM (inactive)
GI50 (MCF7): 51.8 µM (inactive)
GI50 (MDA-MB-231): > 100 µM (inactive)
GI50 (MDA-MB-435): 44.8 µM (inactive)
GI50 (MOLT-4): 61.5 µM (inactive)
GI50 (Malme-3M): > 100 µM (inactive)
GI50 (NCI-H226): > 100 µM (inactive)
GI50 (NCI-H23): > 100 µM (inactive)
GI50 (NCI-H460): > 100 µM (inactive)
GI50 (NCI-H522): 26.8 µM (inactive)
GI50 (NCI/ADR-RES): > 100 µM (inactive)
GI50 (OVCAR-3): 90.8 µM (inactive)
GI50 (OVCAR-4): 93.3 µM (inactive)
GI50 (OVCAR-5): > 100 µM (inactive)
GI50 (OVCAR-8): > 100 µM (inactive)
GI50 (PC-3): 70.8 µM (inactive)
GI50 (RPMI-8226): 42.1 µM (inactive)
GI50 (RXF 393): 24.5 µM (inactive)
GI50 (SF-268): 43 µM (inactive)
GI50 (SF-295): > 100 µM (inactive)
GI50 (SF-539): > 100 µM (inactive)
GI50 (SK-MEL-28): 39.1 µM (inactive)
GI50 (SK-MEL-5): 70 µM (inactive)
GI50 (SK-OV-3): > 100 µM (inactive)
GI50 (SN12C): 56.9 µM (inactive)
GI50 (SNB-19): 71.6 µM (inactive)
GI50 (SNB-75): 20.1 µM (inactive)
GI50 (SR): 53.8 µM (inactive)
GI50 (SW-620): 47.3 µM (inactive)
GI50 (T47D): 46.7 µM (inactive)
GI50 (TK-10): 16.9 µM (inactive)
GI50 (U-251): 43 µM (inactive)
GI50 (UACC-257): > 100 µM (inactive)
GI50 (UACC-62): 32.1 µM (inactive)
GI50 (UO-31): > 100 µM (inactive)
